These results are taken from patent publication US20250276063A1, “PLACENTA-DERVIED NK CELLS AS A SENOL YTIC FOR THERAPEUTIC AND OTHER USES” (Celularity Inc., priority 2021, published 2025).

One experiment relates to CD34+ cells. The experiment in a line: NK cell expansion from CD34+ cells cultured with compound, Day 35. The class given is cell-based, human. The following applies: for supported NK expansion: compound 10 μM during the first 14 days of the culture; for expansion compared to SR1 at Day 35: compound 10 μM, SR1 10 μM positive control. From the text: UCB CD34+ cells were cultivated in presence of cytokines including thrombopoietin, SCF, Flt3 ligand, IL-7, IL-15 and IL-2 for 35 days to produce three-stage NK cells, as described in Example 1. Multi-color flow cytometry was used to determine the phenotypic characteristics of three-stage NK cells.
(§1) For biological testing, the compounds were provided to culture to evaluate their effects on NK cell expansion and differentiation. Specifically, donors of CD34+ cells (StemCell Technology) were thawed and expanded in vitro following NK culture protocol. During the first 14 days of the culture, each CRL compounds was dissolved in DMSO and added to the culture at 10 μM concentration. SR1 (at 10 μM) served as a positive control compound, while DMSO alone without any compound served as a negative control. At the end of the culture on Day 35, cell expansion, natural killer (NK) cell differentiation and cytotoxicity of the cells against K562 tumor cell line were characterized. Due to the large number of the compounds, the testing was performed in two experiments, CRL1-11 and CRL 12-22. The same donors were used for each experiment. Positive and negative controls were also included in both experiments.

For the next experiment, the system named is K562 tumor cells. The experiment in a line: Cytotoxicity assay of compound cultured cells against K562 tumor cells. The experiment is classed as cell-based. The following applies: 10:1 effector to target ratio; both donors. The method, then: as §1
Cytotoxicity assay was run using compound cultured cells against K562 tumor cells at 10:1 effector to target ratio (FIG. 5) to evaluate cell functions.

Turning to `CCC(C)Nc1cc(-c2cncc(C#N)c2)nc(NCCc2c[nH]c3ccccc23)n1` (centres unmarked) [CRL7, 5-(2-((2-(1H-indol-3-yl)ethyl)amino)-6-(sec-butylamino)pyrimidin-4-yl)nicotinonitrile], the “supported NK expansion” value in the experiment on CD34+ cells is “all the compounds except CRL7 and CRL13 supported PNK-007 expansion and differentiation”. Consider `N#Cc1cncc(-c2nc(NCCc3c[nH]c4ccccc34)c3occc3n2)c1` [CRL22, 5-(4-((2-(1H-indol-3-yl)ethyl)amino)furo[3,2-d]pyrimidin-2-yl)nicotinonitrile], for which the “supported NK expansion” value in the experiment with CD34+ cells was “supported cell expansion the best”. In the case of `Cc1cncc(-c2nc(NCCc3c[nH]c4ccccc34)c3scc(C(C)C)c3n2)c1` [CRL21, N-(2-(1H-indol-3-yl)ethyl)-7-isopropyl-2-(5-methylpyridin-3-yl)thieno[3,2-d]pyrimidin-4-amine], the “expansion compared to SR1 at Day 35” value with CD34+ cells is “slightly less expansion compared to SR1”. For the same compound, the “killing activities compared to cells cultured with SR1” value in the experiment with K562 tumor cells is given as “increased killing activities of the cells”. In the case of `CC(C)c1csc2c(NCCc3c[nH]c4ccccc34)nc(-c3cncc(F)c3)nc12` [CRL18, N-(2-(1H-indol-3-yl)ethyl)-2-(5-fluoropyridin-3-yl)-7-isopropylthieno[3,2-d]pyrimidin-4-amine], the “expansion compared to SR1 at Day 35” value in the experiment on CD34+ cells is “slightly less expansion compared to SR1”. Besides, the “killing activities compared to cells cultured with SR1” value in the experiment on K562 tumor cells is given as “increased killing activities of the cells”. For the compound `CCC(C)Nc1nc(NCCc2c[nH]c3ccccc23)c2ccccc2n1` (centres unmarked) [CRL13, N^4-(2-(H-indol-3-yl)ethyl)-N^2-(sec-butyl)quinazoline-2,4-diamine], in the experiment with CD34+ cells, the “supported NK expansion” value is “all the compounds except CRL7 and CRL13 supported PNK-007 expansion and differentiation”. Consider `Fc1cncc(-c2nc(NCCc3c[nH]c4ccccc34)c3occc3n2)c1` [CRL19, N-(2-(1H-indol-3-yl)ethyl)-2-(5-fluoropyridin-3-yl)furo[3,2-d]pyrimidin-4-amine], for which the “supported NK expansion” value in the experiment on CD34+ cells is on record as “supported cell expansion the best”. Take `Cc1cncc(-c2nc(NCCc3c[nH]c4ccccc34)c3occc3n2)c1` [CRL20, N-(2-(1H-indol-3-yl)ethyl)-2-(5-methylpyridin-3-yl)furo[3,2-d]pyrimidin-4-amine]: in the experiment with CD34+ cells, the “supported NK expansion” value is “supported cell expansion the best”. As to `CC(C)c1csc2c(NCCc3c[nH]c4ccccc34)nc(-c3cncc(C#N)c3)nc12` [CRL17, 5-(4-((2-(1H-indol-3-yl)ethyl)amino)-7-isopropylthieno[3,2-d]pyrimidin-2-yl)nicotinonitrile], the “expansion compared to SR1 at Day 35” value in the experiment with CD34+ cells is “slightly less expansion compared to SR1”. The “killing activities compared to cells cultured with SR1” value with K562 tumor cells is “increased killing activities of the cells”.
